In assay [1] the test system is HIF-1α. The assay can be described thus: HIF-1α in nuclear fractions, TRANSAM HIF-1 ELISA. Type of assay: cell-based, human. The conditions noted are these: 293A and Hep3B cells, vs vehicle; FIG. 8B. An excerpt: Compounds of the present invention for use in the present methods stabilize HIFα, inhibit HIF hydroxylase activity and/or HIFα hydroxylation, etc. Thus, compounds can be identified, e.g., by their ability to stabilize HIFα. Stabilization of HIFα using compounds and methods of the present invention was examined as follows. Human cells derived from adenovirus-transformed fetal kidney epithelium (293A), cervical epithelial adenocarcinoma (HeLa), hepatocellular carcinoma (Hep3B), squamous carcinoma (SSC-25), and lung fibroblast (HLF) tissues (see, e.g., American Type Culture Collection, Manassas Va.; and Qbiogene, Carlsbad Calif.) were separately seeded into 100 mm culture dishes and grown at 37° C., 20% O2, 5% CO2 in media as follows: HeLa cells in Dulbecco's Modification of Eagle's Medium (DMEM), 2% fetal bovine serum (FBS); HLF cells in DMEM, 10% FBS; 293A cells in DMEM, 5% FBS; and Hep3B cells in Minimal Essential Medium (MEM), Earle's BSS (Mediatech Inc., Herndon Va.), 2 mM L-glutamine, 0.1 mM non-essential amino acids, 1 mM sodium pyruvate, 10% FBS. When cell layers reached confluence, the media was replaced with OPTI-MEM media (Invitrogen Life Technologies, Carlsbad Calif.) and cell layers were incubated for approximately 24 hours in 20% O2, 5% CO2 at 37° C. A compound of the invention (compound B, D, F, G, or H) or vehicle control (0.5 to 1% DMSO) was then added to existing medium, and incubation was continued overnight.
Alternatively, nuclear fractions were prepared using a nuclear extract kit (Active Motif, Carlsbad Calif.) and were analyzed for HIF-1α using a TRANSAM HIF-1 ELISA kit (Active Motif) according to the manufacturer's instructions.
On the technique in general: ELISA stands for enzyme-linked immunosorbent assay.

The test system of assay [2] is leptin. The assay is described as follows: Leptin secretion by preadipocytes in differentiation media. Type of assay: cell-based, human. The conditions noted are these: 25 or 50 μM, up to 12 days, vs vehicle, FIG. 1B. The procedure: In a separate experiment, preadipocytes were plated in 24 well plates at 45,000 cells per well and cultured for 3 days in preadipocyte media (Zen-Bio). The media was then changed to differentiation media (Zen-Bio) and cells were treated with either vehicle control (0.5% DMSO) or compound B at 25 or 50 μM for up to 12 days. Half of the culture media was exchanged every 3 days and cell-free culture supernatants were generated and analyzed for levels of leptin secretion using a QUANTIKINE immunoassay (R&D Systems) according to the manufacturer's instructions.

In assay [3] the test system is PPAR-γ. The assay can be described thus: PPAR-γ expression in tissue after 4 days of oral dosing. It is filed as in vivo, mouse. The conditions noted are these: cardiac tissue; oral gavage once per day for 4 days; FIG. 3C. The procedure:
(§1) To further investigate the effect of the methods and compounds of the present invention on expression of adipogenic factors, twelve Swiss Webster male mice (30-32 g) obtained from Simonsen, Inc. were treated by oral gavage once per day for 4 days with 4 ml/kg volume of either 0.5% CMC (0 mg/kg/day), 25 mg/ml compound D in 0.5% CMC (100 mg/kg/day), or 7.5 mg/ml and 25 mg/ml of compound B in 0.5% CMC (30 and 100 mg/kg/day, respectively). Four hours after the final dose, animals were anesthetized, sacrificed, and approximately 150 mg of adipose, heart, kidney, liver, lung, and muscle were isolated and stored in RNALATER solution (Ambion) at −20° C. RNA isolation and gene expression analysis was performed as described in Example 3 above.

Assay [4] concerns PFK-P, PFK-L, enolase-1, GluT-1, lactate dehydrogenase-1, aldolase-1, hexokinase-1. The assay is described as follows: Expression of glucose regulation genes in kidney, liver and lung after oral gavage. It is filed as in vivo. The settings on record: mouse kidney, liver, lung; 100 mg/kg oral gavage; FIGS. 10A-10C. The procedure:
(§2) The ability of the present compounds and methods to regulate fat metabolism, in particular, to increase expression of factors involved in fat transport, utilization, and storage, was analyzed as follows. To determine gene induction patterns over time, twenty four Swiss Webster male mice (30-32 g) were obtained from Simonsen, Inc. and treated by oral gavage with a 4 ml/kg volume of either 0.5% carboxymethyl cellulose (CMC; Sigma-Aldrich, St. Louis Mo.) (0 mg/kg) or […] compound B (25 mg/ml in 0.5% CMC) (100 mg/kg). At 4, 8, 16, 24, 48, or 72 hours after the final dose, animals were anesthetized with isoflurane. The mice were then sacrificed and tissue samples of kidney, liver, brain, lung, and heart were isolated and stored in RNALATER solution (Ambion) at −80° C.
In the time course, most mRNA levels peaked early following administration of compound, then returned to control levels after 24 to 48 hours. […] These differences relate, in part, to the different degree to which glycolytic activity provides a critical source of energy for the respective tissue, especially during times of stress.

Assay [5] concerns DEC1/Stra13. The assay can be described thus: DEC1/Stra13 expression in tissues after 4 days of oral dosing. The conditions noted are these: oral gavage once per day for 4 days, FIG. 3B. Type of assay: in vivo, mouse. The procedure: as §1
For assay [6], the system named is aldolase. The assay is described as follows: Aldolase expression in 293A cells, Western blot. Type of assay: cell-based, human. The procedure:
In a further analysis of the methods and compounds effect on glucose regulation, human 293A cells were plated confluent in 35 mm culture dishes and cultured for 1 day at 37° C., 10% CO2 in DMEM containing 5% FBS and 1% penicillin-streptomycin. The media was changed to OPTI-MEM media (Invitrogen Life Technologies) and incubation was continued for an additional 18 to 24 hours. Vehicle control or compound B was then added to the media and cells were incubated for an additional 24, 48 or 72 hours. Plates were placed on ice, culture supernatant was removed, and lysis buffer-1 (LB-1: 10 mM Tris pH 7.4, 1 mM EDTA, 150 mM sodium chloride, 0.5% IGEPAL) was added. Cell lysates were harvested, cytosolic fractions were collected, and cytosolic proteins were separated using SDS-PAGE as described above. After separation, the proteins were transferred to a PVDF membrane at 400 mA for 1.5 hours at 4° C. The membrane was incubated in blocking buffer for 2 hours or overnight and washed once with T-TBS prior to addition of anti-aldolase antibody diluted to working concentration in blocking buffer. After overnight incubation with gentle agitation at 4° C., membranes were washed 4 times with T-TBS, followed by incubation for one hour at room temperature with conjugated secondary antibody diluted in blocking buffer. […]
Background: A western blot detects proteins with antibodies after separation by electrophoresis.

Assay [7] relates to DEC1/Stra13. The assay is described as follows: DEC1/Stra13 expression time course in liver after oral gavage. Type of assay: in vivo. The settings on record: mouse liver, 100 mg/kg oral gavage, 4-72 h; FIG. 3A. The procedure:
as §2
To further investigate the effect of the methods and compounds of the present invention on expression of genes associated with fat metabolism and adipogenesis, the experiments performed as described in Example 3 above were analyzed for specific adipogenic factors. […] DEC1/Stra13 is known to repress expression of PPAR-γ2 nuclear hormone receptor, which is necessary for adipocyte differentiation. […]

Consider one compound from patent US8202834B2, “Fat regulation” (FibroGen, Inc., priority 2002, dated 2012).

For the compound `O=C(O)CNC(=O)c1nc(Cl)c2ccccc2c1O` [compound B, [(1-Chloro-4-hydroxy-isoquinoline-3-carbonyl)-amino]-acetic acid], the “stabilization and accumulation of HIFα” value in assay [1] is “stabilization and accumulation of HIFα”. Besides, the leptin secretion result in assay [2] is “dose-dependent increase in leptin secretion”. For the same compound, in assay [3], the PPAR-γ expression result was “decreased PPAR-γ expression”. Besides, the “expression of genes encoding enzymes involved in glucose regulation” value in assay [4] was “increased in a coordinated fashion”. Besides, the DEC1/Stra13 expression entry in assay [5] (adipose, kidney, liver and muscle, 4 h after final dose) was “increased DEC1/Stra13 expression”; in assay [5] (lung and heart) it was “increased DEC1/Stra13 expression”. Further, in assay [6] (293A cells, 24, 48 and 72 hours, FIG. 9B), the aldolase expression entry is reported as “increased over time”. Moreover, the β-tubulin expression entry in assay [6] (293A cells, specificity control) was “no increases”. In addition, the “expression of DEC1/Stra13” value in assay [7] was “initially increased”.
